# Patent US8193189B2, “Quinoxaline derivatives as tyrosine kinase activity inhibitors” (Novartis AG, priority 2007, dated 2012)
# Experiments:
# GST-JAK1(866-1154) = biological target: T1, GST-JAK1(866-1154) (Homo sapiens, UniProt P23458); assay: EPK JAK-family kinases profiling assay (Caliper mobility shift), JAK1; type: biochemical; settings: ATP 40 μM, 50 nM kinase
# T1 construct: GST-JAK1(866-1154); made in house
# Source text: (§1) All four kinases of the JAK-family kinases were used as purified recombinant GST-fusion proteins, containing the active kinase domains. GST-JAK1(866-1154), GST-JAK3(811-1124), and GST-TYK2(888-1187) were expressed and purified by affinity chromatography at the EPK biology unit. GST-JAK2(808-1132) was purchased from Invitrogen (Carlsbad, USA, #4288).
# (§2) The kinase assays were based on the Caliper mobility shift assay using the LabChip 3000 systems. This technology is similar to capillary electrophoresis and uses charge driven separation of substrate and product in a microfluidic chip.
# (§3) All kinase reactions were performed in 384 well microtiter plates in a total reaction volume of 18 μl. The assay plates were prepared with 0.1 μl per well of test compound in the appropriate test concentration, as described under the section “preparation of compound dilutions”. The reactions were started by combining 9 μl of substrate mix (consisting of peptide and ATP) with 9 μl of kinase dilution. The reactions were incubated for 60 minutes at 30° C. and stopped by adding 70 μl of stop buffer (100 mM Hepes, 5% DMSO, 0.1% Coating reagent, 10 mM EDTA, 0.015% Brij 35).
# (§4) Fluorescently labeled synthetic peptides were used as substrates in all reactions. […] Specific assay conditions are described in Table 1:
# (§5) The terminated reactions were transferred to the Caliper LabChip 3000 reader and the turnover of each reaction was measured by determining the substrate/product ratio.
# (§6) Test compounds were dissolved in DMSO (10 mM) and transferred into 1.4 mL flat bottom or V-shaped Matrix tubes carrying a unique 2D matrix chip by individual compound hubs. The numbers of these chips were distinctively linked to the individual compound identification numbers. The stock solutions were stored at −20° C. if not used immediately. For the test procedure the vials were defrosted and identified by a scanner whereby a working sheet was generated that guided the subsequent working steps.
# (§7) Compound dilutions were made in 96 well plates. This format enabled the assay of maximally 40 individual test compounds at 8 concentrations (single points) including 4 reference compounds. The dilution protocol included the production of pre-dilution plates, master plates and assay plates:
# (§8) Pre-dilution plates: 96 polypropylene well plates were used as pre-dilution plates. A total of 4 pre-dilution plates were prepared including 10 test compounds each on the plate positions A1-A10, one standard compound at A11 and one DMSO control at A12. All dilution steps were done on a HamiltonSTAR robot.
# (§9) Master plates: 100 μL of individual compound dilutions including standard compound and controls of the 4 “pre-dilution plates” were transferred into a 384 “master plate” including the following concentrations 1′820, 564, 182, 54.6, 18.2, 5.46, 1.82 and 0.546 μM, respectively in 90% of DMSO.
# (§10) Assay plates: Identical assay plates were then prepared by pipetting 100 nL each of compound dilutions of the master plates into 384-well “assay plates”. […] The preparation of the master plates were handled by the Matrix PlateMate Plus robot and replication of assay plates by the HummingBird robot.
# GST-JAK2(808-1132) = biological target: T2, GST-JAK2(808-1132) (Homo sapiens, UniProt O60674); assay: EPK JAK-family kinases profiling assay (Caliper mobility shift), JAK2; type: biochemical; settings: ATP 20 μM, 1.8 nM kinase
# T2 construct: GST-JAK2(808-1132); purchased Invitrogen (Carlsbad, USA) #4288
# Source text: as §1, §2, §3, §4, §5, §6, §7, §8, §9, §10
# GST-JAK3(811-1124) = biological target: T3, GST-JAK3(811-1124) (Homo sapiens, UniProt P52333); assay: EPK JAK-family kinases profiling assay (Caliper mobility shift), JAK3; type: biochemical; settings: ATP 80 μM, 6 nM kinase
# T3 construct: GST-JAK3(811-1124); made in house
# Source text: as §1, §2, §3, §4, §5, §6, §7, §8, §9, §10
# [1] = test system: JAK/STAT pathway (JAK1/JAK2-dependent nuclear translocation of STAT1-GFP); assay: Inhibition of the JAK/STAT pathway: IFN-γ stimulated nuclear translocation of STAT1-GFP in HT1080 fibrosarcoma cells; type: cell-based; settings: Homo sapiens, HT-1080; HT1080 STAT1-GFP cells, 100 ng/ml IFN-γ 2 hours, compound added 30 min before; read-out: STAT1translo IC50
# Source text: The medium-throughput (96-well format), robust and reproducible cellular assay can be routinely used to assess the functional activation of Janus Kinases (JAKs), based on the nuclear translocation of their substrate, Signal Transducer and Activator of Transcription (STAT). Nuclear translocation can be monitored in HT1080 fibrosarcoma cells stably transfected with STAT1 fused to Green Fluorescence Protein (GFP). Stimulation with interferon-γ (IFN-γ) results in JAK1/JAK2-dependent nuclear translocation of STAT1-GFP that can be quantified using the Cellomics Cyto/NucTrans software package. This assay may be used to provide an assessment of the nuclear-cytoplasmic differential (NCD) of GFP-STAT1 using Hoechst dye to define the boundaries of the nucleus.
# Compounds can be dissolved in DMSO to a final stock concentration of 10 mM and stored as aliquots at 4° C. Compounds may be pre-diluted in 100% DMSO at 10 mM, 3 mM 1 mM, 0.3 mM, 0.1 mM, 0.03 mM, 0.01 mM and 0.003 mM. Subsequently, compounds may be diluted in medium and added in 50 μl to the cells. The final compound concentrations tested may be 10 μM, 3 μM 1 μM, 0.3 μM, 0.1 μM, 0.03 μM, 0.01 μM and 0.003 μM and the final DMSO concentration can be 0.1%.
# The plates may then be washed once in PBS, and 200 μl PBS finally added per well. The plates, being finally covered with a black adhesive, may be either read directly or stored at 4° C. for later imaging. Where appropriate, the compounds may be added 30 min before stimulation with IFN-γ.
# The plates can be read on a Cellomics® ArrayscanII automated fluorescence microscope plate reader equipped with a Mercury-Xenon white light illumination source and a Zeiss Axiovert inverted microscope, using the XF100 dichroic/emission filter cube and matching excitation filters, 10× magnification, and a 0.3 numerical aperture objective. Image acquisition and analysis can be performed using a customized protocol based on the ‘NuclearTranslocation’ Bioapplication (for details, see Appendices). For each well, multiple images (fields) can be acquired until a minimum of 1000 cells are counted using two 2 channels: Channel 1 (Hoechst)=focus+nuclear mask, Channel 2 (GFP)=signal quantification in mask areas as outlined below.
# Nuclei may be first identified based on the Hoechst staining and a mask generated for each nucleus that then serves as a template to generate a circle (eroded inwards by 1 pixel) and a 3 pixel-wide collar-like ring (off-set outwards by 1 pixel), in which the nuclear and cytoplasmic intensity of GFP, respectively, are quantified in the corresponding channel. High content analysis yields numerous measurements per cell and the GPF intensity differential between the nuclear and the cytoplasmic masks may be chosen as a measure of sub-cellular GFP-STAT1 relocation. The resulting values may be averaged for all cells in the well to return a single measurement plus standard deviation.
# T3 sequence (P52333 811-1124): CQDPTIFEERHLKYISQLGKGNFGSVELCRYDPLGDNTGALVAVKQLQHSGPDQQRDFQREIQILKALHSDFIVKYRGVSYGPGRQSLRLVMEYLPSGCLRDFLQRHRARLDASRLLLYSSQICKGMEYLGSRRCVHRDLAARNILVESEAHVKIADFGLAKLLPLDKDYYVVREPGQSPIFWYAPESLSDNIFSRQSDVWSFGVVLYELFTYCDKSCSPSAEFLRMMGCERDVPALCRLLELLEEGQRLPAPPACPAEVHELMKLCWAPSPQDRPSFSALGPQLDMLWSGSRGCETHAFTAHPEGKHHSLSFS
# T1 sequence (P23458 866-1154): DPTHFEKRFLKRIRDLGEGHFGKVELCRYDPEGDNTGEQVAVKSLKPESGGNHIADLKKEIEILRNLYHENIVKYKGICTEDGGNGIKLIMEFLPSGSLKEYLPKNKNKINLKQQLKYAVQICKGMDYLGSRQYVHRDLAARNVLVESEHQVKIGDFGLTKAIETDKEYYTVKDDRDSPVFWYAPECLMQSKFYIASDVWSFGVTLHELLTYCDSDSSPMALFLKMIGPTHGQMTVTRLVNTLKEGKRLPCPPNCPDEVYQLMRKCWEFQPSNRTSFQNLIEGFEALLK
# T2 sequence (O60674 808-1132): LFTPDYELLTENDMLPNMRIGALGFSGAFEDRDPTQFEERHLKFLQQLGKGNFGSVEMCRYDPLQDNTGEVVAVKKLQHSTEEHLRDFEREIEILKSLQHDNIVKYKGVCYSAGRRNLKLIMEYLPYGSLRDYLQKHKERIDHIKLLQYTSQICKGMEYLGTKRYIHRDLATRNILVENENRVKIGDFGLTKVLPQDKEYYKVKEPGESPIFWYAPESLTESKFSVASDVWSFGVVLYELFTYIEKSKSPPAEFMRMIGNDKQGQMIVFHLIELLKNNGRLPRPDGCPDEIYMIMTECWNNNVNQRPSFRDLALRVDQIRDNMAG
SMILES,IC50 (GST-JAK1(866-1154)) [nM],IC50 (GST-JAK2(808-1132)) [nM],IC50 (GST-JAK3(811-1124)) [nM],IC50 [1] [nM]
"Cc1cc(-c2cnc3cccc(-c4ccc(CN5CCS(=O)(=O)CC5)c(Cl)c4)c3n2)ccc1C(=O)N1CCOCC1 [Example 61, (4-{8-[3-Chloro-4-(1,1-dioxido-thiomorpholin-4-ylmethyl)-phenyl]-quinoxalin-2-yl}-2-methyl-phenyl)-morpholin-4-yl-methanone]",165,15,1400,235
"COCCOc1ccc(-c2cnc3cccc(-c4ccc(CC(=O)N5CCOCC5)c(F)c4)c3n2)cc1OC [Example 49, 2-(2-Fluoro-4-{3-[3-methoxy-4-(2-methoxy-ethoxy)-phenyl]-quinoxalin-5-yl}-phenyl)-1-morpholin-4-yl-ethanone]",260,38,4400,1220
"Cc1cc(-c2cnc3cccc(-c4ccc(CN5CCOCC5)c(F)c4)c3n2)ccc1C(=O)N(C)C [Example 56, 4-[8-(3-Fluoro-4-morpholin-4-ylmethyl-phenyl)-quinoxalin-2-yl]-2,N,N-trimethyl-benzamide]",150,12,570,471
"COCCOc1ccc(-c2cnc3cccc(-c4ccc(CN5CCS(=O)(=O)CC5)c(F)c4)c3n2)cc1OC [Example 48, 8-[4-(1,1-Dioxido-thiomorpholin-4-ylmethyl)-3-fluoro-phenyl]-2-[3-methoxy-4-(2-methoxy-ethoxy)-phenyl]-quinoxaline]",9.9,< 3,77,150
"CCN1CCN(C(=O)c2ccc(-c3cnc4cccc(-c5ccc(C(C)(C)N6CCOCC6)c(C)c5)c4n3)cc2C)CC1 [Example 80, (4-Ethyl-piperazin-1-yl)-(2-methyl-4-{8-[3-methyl-4-(1-methyl-1-morpholin-4-yl-ethyl)-phenyl]-quinoxalin-2-yl}-phenyl)-methanone]",3800,75,4550,1550
"Cc1cc(-c2cccc3ncc(-c4ccc(N5CCOCC5)cc4)nc23)ccc1C(=O)N1CCOCC1 [Example 46, {2-Methyl-4-[3-(4-morpholin-4-yl-phenyl)-quinoxalin-5-yl]-phenyl}-morpholin-4-yl-methanone]",110,20,1600,2820
"CCN1CCN(C(=O)c2ccc(-c3cnc4cccc(-c5ccc(C(C)(C)N6CCS(=O)(=O)CC6)c(C)c5)c4n3)cc2C)CC1 [Example 81, [4-(8-{4-[1-(1,1-Dioxido-thiomorpholin-4-yl)-1-methyl-ethyl]-3-methyl-phenyl}-quinoxalin-2-yl)-2-methyl-phenyl]-(4-ethyl-piperazin-1-yl)-methanone]",1150,16.5,780,389
"COc1cc(-c2cnc3cccc(-c4ccc(CS(C)(=O)=O)cc4)c3n2)ccc1OCCN1CCOCC1 [Example 37, 8-(4-Methanesulfonylmethyl-phenyl)-2-[3-methoxy-4-(2-morpholin-4-yl-ethoxy)-phenyl]-quinoxaline]",68,14,780,3080
"COc1cc(-c2cnc3cccc(-c4ccc(NS(C)(=O)=O)cc4)c3n2)ccc1OCCN1CCOCC1 [Example 36, N-(4-{3-[3-Methoxy-4-(2-morpholin-4-yl-ethoxy)-phenyl]-quinoxalin-5-yl}-phenyl)-methanesulfonamide]",41,17,940,3860
"CCOc1ccc(-c2cnc3cccc(-c4ccc(CN5CCS(=O)(=O)CC5)c(C)c4)c3n2)cc1OCC [Example 32, 2-(3,4-Diethoxy-phenyl)-8-[4-(1,1-dioxido-thiomorpholin-4-ylmethyl)-3-methyl-phenyl]-quinoxaline]",570,84,2700,7790
"Cc1cc(-c2cnc3cccc(-c4ccc(CC(=O)N5CCS(=O)(=O)CC5)c(F)c4)c3n2)ccc1CN1CCOCC1 [Example 69, 1-(1,1-Dioxido-thiomorpholin-4-yl)-2-{2-fluoro-4-[3-(3-methyl-4-morpholin-4-ylmethyl-phenyl)-quinoxalin-5-yl]-phenyl}-ethanone]",75,6.7,890,530
"Cc1cc(-c2cnc3cccc(-c4cc(F)c(CN5CCOCC5)c(F)c4)c3n2)ccc1C(=O)N1CCCC1 [Example 66, {4-[8-(3,5-Difluoro-4-morpholin-4-ylmethyl-phenyl)-quinoxalin-2-yl]-2-methyl-phenyl}-pyrrolidin-1-yl-methanone]",140,6.05,250,1000
"Cc1cc(-c2cnc3cccc(-c4ccc(CC(=O)N5CCOCC5)cc4)c3n2)ccc1C(=O)N1CCN(C)CC1 [Example 41, 2-(4-{3-[3-Methyl-4-(4-methyl-piperazine-1-carbonyl)-phenyl]-quinoxalin-5-yl}-phenyl)-1-morpholin-4-yl-ethanone]",130,6.3,640,346
"CCN1CCN(C(=O)c2ccc(-c3cnc4cccc(-c5cc(F)c(CN6CCOCC6)c(F)c5)c4n3)cc2C)CC1 [Example 82, {4-[8-(3,5-Difluoro-4-morpholin-4-ylmethyl-phenyl)-quinoxalin-2-yl]-2-methyl-phenyl}-(4-ethyl-piperazin-1-yl)-methanone]",490,14,1250,946
"O=C(Cc1ccc(-c2cccc3ncc(-c4ccc(OCCCN5CCOCC5)cc4)nc23)cc1)N1CCOCC1 [Example 74, 1-Morpholin-4-yl-2-(4-{3-[4-(3-morpholin-4-yl-propoxy)-phenyl]-quinoxalin-5-yl}-phenyl)-ethanone]",310,25,1300,2610
